{
  "source": "patent US7112564B2",
  "about": "“Biodegradable glucosaminemuramyl peptides for apoptosis modulation” (Zylacta Corporation, priority 2003, dated 2006)",
  "test_system": "A549 cells (human lung cancer)",
  "test": "Inhibition of TNF alpha cytotoxicity (LDH release into culture supernatant)",
  "assay_type": "cell-based",
  "settings": "ingredient at 1 ug/ml, FIG. 2",
  "method": "A549 cells (human lung cancer) were seeded in six-well plates, and after 24 h (70% confluence) treated with 25 ug/ml cycloheximide (CHX) and either 100 U/ml human TNF (Beoringer) or an agonist monoclonal antibody to FAS (Panerva) in concentration 200 ng/ml. GMDP, and GMHP were added just prior to the cytokine in the concentrations discussed in the figure legends. Twenty hours after the treatment 20 ul of the cultured supernatant was removed and tested for the LDH activity in 96 well plates in triplicate. Samples were assayed on an EL340 Microplate reader (Biotec Instruments, Inc) at 490-nm wavelength.\nThe purpose of this experiment was to show the synergistic effect of NAG and D-glutamine on LDH release. Technically the experiment was similar to example 1. Both ingredients were added in concentration 1 ug/ml. […] Almost 50% inhibition of LDH activity was noticed for NAG+D-glutamine composition. […] The glucosamine muramyl hexapeptide has 3 D-amino acids while GMDP has only one D-isoglutamine.",
  "data": [
    {"smiles": "NC(=O)CC[C@H](N)C(=O)O", "note": "[L-glutamine]", "values": [
      {"measurement": "protection of cells from TNF alpha cytotoxicity (LDH release)", "value": "does not protect cells from TNF alpha cytotoxicity"}
    ]}
  ]
}
